Source: paper PMC10606064, “2-Aminothiazole-Flavonoid Hybrid Derivatives Binding to Tau Protein and Responsible for Antitumor Activity in Glioblastoma” (International Journal of Molecular Sciences, 2023)

Columns and labels:
[1] = tested on: SK-N-SH neuroblastoma cells; test: MTT cell viability assay, SK-N-SH; assay type: cell-based; settings: Homo sapiens, 72 h, mean ± SEM, read-out: IC50 (metabolic activity)
Protocol: (§1) Cells harvested from sub-confluent monolayers were seeded at 15,000 cells per mL in a 96-well microtiter plate (Cambridge Technology, Labège, France) and cultured for 24 h under standard conditions. Standard medium was then replaced by fresh medium containing no drugs or compounds at different concentrations. The surviving cells were quantified after 72 h by the MTT assay, according to the manufacturer’s instructions. Briefly, 20 µL of 3-(4,5-diMethylThiazol-2-yl)-2,5diphenyl Tetrazolium bromide (MTT) solution at 5 mg.mL^−1 was added to cells for 3 h at 37 °C. The supernatant was discarded and replaced by 100 µL of dimethyl sulfoxide to dissolve formazan crystals. The absorbance was then read at 600 nm by spectrophotometry. For all concentrations of a given compound, cell viability was expressed as the percentage of the ratio between the mean absorbance of treated cells and the mean absorbance of untreated cells. Three independent experiments were performed, and the data were expressed as percentage of survival (using the untreated cells as 100%) and subjected to statistical analysis (n = 3). The IC50 was calculated using the Chou and Talalay method.

[2] = target: T1, full-length human Tau (hTau40) (Homo sapiens, UniProt P10636); test: Tau oligomerization inhibition assay (heparin-induced, thioflavin S fluorescence); assay type: biochemical; settings: 2 µM Tau, heparin-induced, ThS; buffer A pH 6.9; 25 °C per table footnote (37 °C in method); mean ± SD; read-out: Inhibition of Aggregation IC50
T1 construct: The full-length human Tau (hTau40) was expressed in a transformed E. coli BL21 (DE3) strain; made in house; host or cells: E. coli BL21 (DE3)
T1 sequence (P10636 1-441 isoform P10636-8): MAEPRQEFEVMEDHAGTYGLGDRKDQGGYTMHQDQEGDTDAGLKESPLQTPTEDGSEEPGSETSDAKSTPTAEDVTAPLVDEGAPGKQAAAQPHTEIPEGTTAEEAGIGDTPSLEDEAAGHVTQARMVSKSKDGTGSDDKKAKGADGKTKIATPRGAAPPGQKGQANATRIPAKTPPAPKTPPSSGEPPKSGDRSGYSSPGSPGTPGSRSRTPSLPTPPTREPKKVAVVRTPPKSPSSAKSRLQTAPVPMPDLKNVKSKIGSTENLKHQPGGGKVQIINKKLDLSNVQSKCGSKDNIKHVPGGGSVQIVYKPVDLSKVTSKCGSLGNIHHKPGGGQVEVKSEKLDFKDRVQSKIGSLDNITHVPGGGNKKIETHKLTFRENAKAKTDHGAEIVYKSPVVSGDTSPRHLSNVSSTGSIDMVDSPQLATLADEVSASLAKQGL
Protocol: Tau oligomerization inhibition assay was performed at 37 °C in 96-well plates by monitoring thioflavin-S fluorescence at 520 nm after excitation at 440 nm using a microplate reader (POLARstar Omega system, BMG Labtech, Paris, France). The Tau oligomerization process was induced by heparin. […] The plates were shaken at 200 rpm for 10 s before each measurement. The real value of fluorescence at the plateau was determined using SciDAVis v1.23 software. Data were fitted to the SciDAVis built-in ExpGrowth equation by means of nonlinear least-squares regression analysis. Y = Y0 + A × exp(x/t)(1)
The unscaled Levenberg–Marquardt algorithm was used, and initial values were given to Y0, A, and t. The final Y0 value of the model corresponds to the plateau value. The plateau values were then used to calculate the Tau oligomerization inhibition percentage. The IC50 for each compound was calculated from the scatter plot of Tau oligomerization inhibition (in percentage) as a function of log10 of compound concentration. The IC50 value (in µM) thus corresponds to ten raised to the power of […].

U87 glioblastoma cells = test: MTT cell viability assay, U87; assay type: cell-based, human; settings: Homo sapiens; U87, 72 h, MTT; mean ± SEM; read-out: IC50 (metabolic activity)
Protocol: as §1

U87 shTau cells [3] = test: MTT cell viability assay, U87 shTau (Tau-depleted); assay type: cell-based; settings: Homo sapiens, 72 h, mean ± SEM, read-out: IC50 (metabolic activity)
Protocol: (§2) All cell lines were purchased from ATCC, Gaithersburg, MD, USA. Cells from human glioblastoma (clones U87 wt, HTB-14; U118, HTB-15; U251, HTB-12; U138, HTB-16), neuroblastoma (clone SK-N-SH, HTB-11), and colorectal adenocarcinoma (clone Caco-2, HTB-37) were routinely grown at 37 °C in a humidified atmosphere containing 5% CO2. Cells were maintained by regular passages in complete media supplemented with 10% FBS, 2mM of L-glutamine, 100 U/mL of penicillin, and 50 U/mL of streptomycin (Invitrogen, Paris, France). For U87 wt, U251, U138, and SK-N-SH cells, the medium consisted of EMEM (Lonza, Levallois Perret, France). U118 and Caco-2 lines were maintained in DMEM. The U87 wt-derived lines, U87 shCTRL, and U87 shTau2 cells were continuously maintained in complete EMEM medium supplemented with 0.4 µg/mL of puromycin. The shRNA sequences and the protocol of clone selection and Tau downregulation were previously described in [20]. For Tau expression rescue, the U87 shCTRL and U87 shTau cells were seeded two days prior to experiments at 4.10^5 cells per 60 mm dish in 6 mL of complete medium. Cells were transfected using LipofectAmine 2000 according to Invitrogen instructions and 8 µg EGFP-free plasmid constructs (for U87 shCTRL) and EGFP-hTau40 plasmid constructs (for U87 shTau) were used in total. One day prior to experiments, all cells were plated in a 96-well microtiter plate to prepare for viability assays. Cells were free from mycoplasma as determined by mycoalert tests (Lonza).
as §1

[4] = tested on: Caco-2 colon adenocarcinoma cells; test: MTT cell viability assay, Caco-2; assay type: cell-based; settings: Homo sapiens, Caco-2 (not expressing Tau), 72 h, mean ± SEM, read-out: IC50 (metabolic activity)
Protocol: as §1

U138 glioblastoma cells = test: MTT cell viability assay, U138; assay type: cell-based; settings: Homo sapiens, U138, 72 h, mean ± SEM, read-out: IC50 (metabolic activity)
Protocol: as §1

U251 glioblastoma cells = test: MTT cell viability assay, U251; assay type: cell-based; settings: Homo sapiens, U-251, U251, 72 h, mean ± SEM, read-out: IC50 (metabolic activity)
Protocol: as §1

T98G glioblastoma cells = test: MTT cell viability assay, T98G; assay type: cell-based; settings: Homo sapiens, 72 h, mean ± SEM, read-out: IC50 (metabolic activity)
Protocol: as §1

U87 shCTRL cells [5] = test: MTT cell viability assay, U87 shCTRL (expressing Tau); assay type: cell-based, human; settings: Homo sapiens; U87 shCTRL, 72 h, MTT; mean ± SEM; read-out: IC50 (metabolic activity)
Protocol: as §2, §1

[6] = target: T2, Tau protein (full-length human Tau, hTau40) (Homo sapiens, UniProt P10636); test: Tau intrinsic fluorescence quenching, modified Stern–Volmer binding parameters; settings: 5 µM Tau, buffer B pH 6.8, mean ± SD; for Kd: read-out: Equilibrium Binding Constants to Tau, KD
T2 construct: The full-length human Tau (hTau40) was expressed in a transformed E. coli BL21 (DE3) strain; made in house; host or cells: E. coli BL21 (DE3)
T2 sequence (P10636 1-441 isoform P10636-8): as above
Protocol: Fluorescence measurements were performed with a Horiba Jobin Yvon FluoroMax-3 spectrofluorometer. […] For experiments, the excitation wavelength was fixed at 275 nm, and the emission spectra were recorded between 280 nm and 500 nm at room temperature. The inner filter effects were corrected according to Lakowicz as follows:F = Fobs × exp{(Aem + Aex)/2}(2) where Fobs and F are the observed and corrected fluorescence values at the emission wavelength of 303 nm. Aex and Aem are the absorptions at the excitation and emission wavelengths, respectively, calculated with A = ε.l.C, in which ε is the extinction coefficient of Tau, l is the path length of cuvette, and C is Tau concentration.
The total fluorescence in the absence of quencher (F0) is given by:F0 = F0a + F0b(4) where 0 refers to the fluorescence intensity in the absence of quencher.
In the presence of quencher, we defined fa as the fraction of the initial fluorescence of Tau accessible to compounds:fa = F0a/(F0a + F0b)(5)
Therefore, the intensity of the accessible fraction (fa) is decreased according to the Stern–Volmer equation, whereas the buried fraction is not quenched, as given by:F = {F0a/(1 + K.[Q])} + F0b(6)
Then, subtraction of Equations (6) and (4) yields:ΔF = F0 − F = F0a × {K.[Q]/(1 + K.[Q])}(7)
At last, inversion of Equation (7) followed by division into Equation (4) yields:F0/ΔF = {1/(fa.K.[Q])} + 1/fa(8)
We applied this modified form of the Stern–Volmer equation to graphically determine the values of fa and K. For our experiments, we plotted F0/ΔF against 1/[Q], then we determined the fa value at the point of intersection with the y-axis, while the slope represented (faK)^−1.

[7] = tested on: GBM cells (U87, U251, U138, and T98G); test: MTT assay across the Tau-expressing GBM cell models; assay type: cell-based, human; settings: GBM cells
Protocol: as §1

U87 shTau cells [8] = test: Mitotic index by high-content imaging, U87 shTau; assay type: cell-based, human; settings: 48 h, 5-times IC50 of compounds
Protocol: (§3) For scoring mitotic indexes, an automated high-content screening confocal microscopy approach was employed to identify cells undergoing mitosis from a large population of cells. For this, cells nuclei were stained with DAPI. Briefly, fibronectin-coated clear-glass-bottom black 96-well imaging plates were seeded with 100 µL of cell suspension (60,000 cell.mL^−1) in each well, with both U87 shCTRL and U87 ShTau cell lines. Cells were treated with 5-times IC50 of compounds for 48 h, then they were fixated inside the palates with 4% formaldehyde (in PBS pH 7.4) for 20 min at room temperature, permeabilized with PBS-Triton X-100 0.5% for 10 min at room temperature. DNA was then stained with DAPI (10 µg.mL^−1) for 5 min at room temperature and in the darkness. After being washed, cells were kept in PBS at 4 °C and imaged while in PBS. Automated confocal microscopy was carried out using an Opera Phenix (PerkinElmer) high-content screening microscope using a 20× Air/0.4 NA air objective. For each condition, 6 wells were prepared and a total of 61 fields were acquired for each well. Image analysis was performed using Harmony high-content analysis v4.8 software and PhenoLOGIC Machine Learning technology, which uses a learn-by-example approach. As a first step, nuclei were segmented and multiple parameters for these nuclei were calculated using Harmony v4.8 software building blocks. After training, PhenoLOGIC Machine Learning then selects the best parameters to detect nuclei undergoing the M phase of mitosis. From this, the mitotic index of each condition was calculated by dividing the number of cells undergoing mitosis over the total number of cells.

U87 shCTRL cells [9] = test: Cell cycle by flow cytometry (propidium iodide), U87 shCTRL; assay type: cell-based, human; settings: 48 h, compounds 10 µM, NOC 1 µM
Protocol: (§4) Measurements of cell cycle from DNA content were performed by flow cytometry as described before. Briefly, 4.10^5 cells in exponential growth were seeded in 6-well plates. After 24 h, they were treated with 10 µM of compounds for 48 h. Nocodazole was used as a positive control with a concentration of 1 µM. The trypsinized cells were harvested and then centrifuged (1200 rpm, 5 min, at room temperature). The cell pellet was resuspended in 1 mL of PBS 1× at 4 °C, and then an extra 4 mL of cold PBS was added to wash the pellet. Cells were then centrifuged again (1200 rpm, 5 min, at 4 °C). To fixate the cells, the pellet was resuspended in 100 µL of cold 70% ethanol, then an additional 900 µL was added and cells were incubated for 30 min at −20 °C. After that, 9 mL of cold PBS was added, and cells were centrifuged (2000 rpm, 5 min, at 4 °C) to remove ethanol. The cell pellet was then resuspended in the staining mix containing 50 µg.mL^−1 of propidium iodide (Molecular Probes, Paris, France) and 100 µg.mL^−1 of RNAse A (Sigma-Aldrich, Saint-Quentin-Fallavier, France) in PBS for 20 min at room temperature in darkness. Samples were analyzed on a Beckman–Coulter–Gallios flow cytometer using the Kaluza for Gallios Acquisition v1.0 software. Propidium iodide was excited at 488 nm, and fluorescence was analyzed at 620 nm on channel FL-3. For the analysis, there is considerable overlap between early S phase and G1 and between late S phase and G2/M due to broadening of the distribution caused by variability in the staining of the cells and instrumental variability. Therefore, the percentages of cells in the sub-G1, G1, S, and G2/M phases of the cell cycle were calculated using the Watson et al. algorithm for cell cycle analysis in Kaluza for Gallios Analysis v2.1 software. The software automatically adjusted gates based on PI median fluorescence intensity of the cells and their frequency among total cells. The number of cells in each phase was divided by the total number of analyzed cells, and the values were reported as percentage of the total cells for each cell cycle phase.

U87 shTau cells [10] = test: Cell cycle by flow cytometry (propidium iodide), U87 shTau; assay type: cell-based, human; settings: 48 h, compounds 10 µM, NOC 1 µM
Protocol: as §4

U87 shCTRL cells [11] = test: Mitotic index by high-content imaging, U87 shCTRL; assay type: cell-based, human; settings: 48 h, 5-times IC50 of compounds
Protocol: as §3

| SMILES | IC50 [1] | IC50 [2] | IC50 (U87 glioblastoma cells) | IC50 (U87 shTau cells [3]) | IC50 [4] | IC50 (U138 glioblastoma cells) | IC50 (U251 glioblastoma cells) | IC50 (T98G glioblastoma cells) | IC50 (U87 shCTRL cells [5]) | Equilibrium Binding Constants to Tau, fA (Tyr accessible fraction) [6] | Kd [6] | efficacy fold higher than 13 and 15 [7] | mitotic index (U87 shTau cells [8]) | %G1 (cells in G1 phase) (U87 shCTRL cells [9]) | %G2/M (cells in G2/M phase) (U87 shCTRL cells [9]) | %G1 (cells in G1 phase) (U87 shTau cells [10]) | %G2/M (cells in G2/M phase) (U87 shTau cells [10]) | mitotic index (U87 shCTRL cells [11]) |
| --- | --- | --- | --- | --- | --- | --- | --- | --- | --- | --- | --- | --- | --- | --- | --- | --- | --- | --- |
| CCOC(=O)c1ccc(-c2cc(=O)c3c(ccc4nc(N)sc43)o2)cc1 [Compound 4] | > 100 µM | 9.7 ± 0.2 µM | > 100 µM | > 100 µM | > 100 µM | > 100 µM | > 100 µM | > 100 µM | > 100 µM | 0.12 ± 0.01 | 2.4 ± 0.8 µM |  |  |  |  |  |  |  |
| COc1c(-c2cccc(F)c2)oc2ccc3nc(N)sc3c2c1=O [Compound 14] |  | 11.7 ± 2 µM | 1.1 ± 0.2 µM |  |  | 1.4 ± 0.2 µM | 1.3 ± 0.5 µM | 2.7 ± 0.5 µM |  | 0.21 ± 0.04 | 4.2 ± 0.3 µM | up to 6 fold |  |  |  |  |  |  |
| Nc1nc2ccc3nc(-c4ccc(Oc5ccccc5)cc4)[nH]c(=O)c3c2s1 [Compound 17] | > 100 µM | > 100 µM | 5.1 ± 0.8 µM | > 100 µM | > 100 µM | > 100 µM | > 100 µM | > 100 µM | > 100 µM | 0.14 ± 0.05 | 3.5 ± 1 µM |  |  |  |  |  |  |  |
| COC(=O)Nc1nc2ccc(C(=O)c3cccs3)cc2[nH]1 [NOC, nocodazole, reference compound] |  |  |  |  |  |  |  |  |  |  |  |  | 23.0 ± 4.01% | 10 ± 3% | 82 ± 6% | 9 ± 7% | 77 ± 4% | 9.38 ± 3.55% |
